The values below come from patent US10550165B2, “Peptide for inducing regeneration of tissue and use thereof” (STEMRIM INC., priority 2011, dated 2020).

Assay [1] relates to PDGFRα-positive, CD44-positive cells in the peripheral blood. In words: Mobilization of PDGFRα-positive, CD44-positive cells into peripheral blood (FACS). Type of assay: in vivo, mouse. To be noted: 10 μg via the caudal vein, C57Bl6 mice, blood after 12 hours; PBS group 1.33%. The procedure:
10 μg of synthetic peptide (amino acids of positions 1 to 44) was dissolved in 200 μl of PBS and administered to C57B16 mice (female, 8 weeks old) via the caudal vein using a syringe with 30-gauge needle. An equal volume of PBS was administered as a negative control. After 12 hours, peripheral blood was collected from the left ventricle of the heart under systemic anesthesia with isoflurane. After adding 3 ml of PBS (Nacalai tesque; Cat. 14249-95), 3 ml of Ficoll-Paque Plus (GE Healthcare; Cat. 17-1440-02) was overlaid onto the blood. The blood was centrifuged in a centrifuge at 400 G and 25° C. for 45 minutes. The upper serum layer was discarded, and only the cells seen as a white band in the intermediate layer were collected. Then, 45 ml of PBS was added to the collected cells, and centrifuged in a centrifuge at 800 G and 25° C. for 20 minutes. After the supernatant was discarded, 10 ml of PBS was added and centrifuged at 1500 rpm and 25° C. for 10 minutes. The supernatant was discarded and 1 ml of hemolysis buffer (HLB; Immuno-Biological Laboratories) was added to the cells. After pipetting, the cells were allowed to stand for 5 minutes. Then, 10 ml of PBS was added to the cells and centrifuged at 1500 rpm and 25° C. for 10 minutes. […] The cells prepared as described above were analyzed using FACSCant™ II.

The test system of assay [2] is mouse bone marrow mesenchymal stem cell line (MSC-1 cells), PDGFRα-positive. Kind of assay: Migration assay (Boyden / 48-well chemotaxis chamber) on bone marrow mesenchymal stem cell line MSC-1. Format: cell-based. The essentials: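 Mouse MSC-1 cells (3×10^6 cells/ml in D-MEM with 10% FBS) loaded in the upper wells of a 48-well Boyden chamber with 8 μm polycarbonate membrane; mouse HMGB1 peptides or HEK293-made HMGB1 in lower wells at 100 μg/ml, 5 μM or 10 μM; PBS as negative control. After 4 h at 37° C, migrated cells were Diff-Quik stained.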

The mark [3] stands for this setting: 2 μM, area of migrated cells by image analysis, FIG. 10.

As for “synthetic peptide (1-44): chemically synthesized HMGB1 peptide, amino acids 1 to 44, mouse HMGB1 sequence (MGKGDPKKPRGKMSSYAFFVQTCREEHKKKHPDASVNFSEFSKK; UniProt P63158 1-44, looked up, fragment)”, the “proportion of PDGFRα-positive, CD44-positive cells in the peripheral blood, average” value in assay [1] was found to be 4.33%. For the same substance, in assay [2] (setting [3]), the “migration-promoting activity relative to the full-length HMGB1, compared per equal mass” value was 2.86 times and the “migration-promoting activity relative to the full-length HMGB1, compared per equal mole” value came to 0.57 times. In addition, in assay [2] (synthetic peptides, 100 μg/ml, positive control 1-215(HEK), FIG. 7), the migration-promoting activity result was “activity comparable to or higher than that of the positive control”.
